Assay results: patent US20160222131A1, “ATRX AS A COMPANION DIAGNOSTIC FOR CDK4 INHIBITORS” (Memorial Sloan-Kettering Cancer Center, priority 2013, published 2016)
Non-standard residues stand in square brackets, D forms with d. No end group written: not given here. Arg(Me2s) = CN=C(NC)NCCC[C@H](N)C(=O)O; pS = N[C@@H](COP(=O)(O)O)C(=O)O

Assays:
Bethyl antibody = experiment: Reactivity of ATRX C-terminal peptides with the Bethyl antibody; format: binding; conditions: KLH-coupled peptides, FIG. 11
From the text: All peptides were generated by Thermo Fisher Scientific/Pierce Biotechnology and coupled to the carrier KLH. All conjugates were provided at >98% purity as determined by HPLC. Peptide sequences were confirmed by mass spec. Peptides RSK, 2490Ac and 2480Ra reacted with the Bethyl antibody (FIG. 11).

[1] = tested on: responder cell line LS8817; experiment: Senescence-associated β-galactosidase after PD0332991 in ATRX knockdown cells; format: cell-based; conditions: LS8817 infected with shRNA directed to ATRX vs shSCR, PD0332991 for seven days, FIG. 3
Experimental: To determine if ATRX plays a role in the senescence pathway induced by treatment with a CDK4 inhibitor, the expression of ATRX was genetically manipulated in the responder cell line, LS8817. Knockdown of ATRX (FIG. 2) was performed in LS8817 cells that were treated with PD0332991. The presence of ATRX in scrambled control shRNA (shSCR)-treated cells and the ATRX shRNA-treated cells was detected by the Bethyl antibody. The accumulation of […] associated β-galactosidase (SA-β-gal) shSCR-treated cells and the ATRX shRNA-treated cells was measured (FIG. 3). […] To determine if ATRX was also downstream of MDM2 loss, we subsequently infected the ATRX deficient cells with lentiviruses expressing shRNAs that targeted MDM2. In the responder cell line, LS8817, accumulation of SA-β-gal was still compromised even though the level of MDM2 was reduced (FIG. 4A). […] Thus, a form of ATRX was required for both PD0332991-induced loss of MDM2, and downstream of MDM2 loss to establish a senescent state.

[2] = tested on: non-responder cell line LS8107; experiment: ATRX foci by immunofluorescence in non-responder cells treated with PD0332991; format: cell-based
Experimental: (§1) Cells were washed twice with PBS and fixed with 4% paraformaldehyde at room temperature for 20 minutes. Cells were again washed twice with PBS and treated with 0.1% triton X-100 in PBS for five minutes. Cells were again washed twice with PBS and blocked in 5% BSA in PBS for 30 minutes at room temperature. Cells were incubated with anti-ATRX antibody, obtained from Bethyl, Cat No. A301-045A, diluted at 1:2000 in PBS (stock is provided at 1 mg/ml) overnight at 4 degrees Celsius. The following day, cells were washed twice with PBS and incubated with Alexa Fluor-488 anti-rabbit secondary diluted at 1:500 in PBS (stock was provided at 2 mg/ml) for one hour at room temperature. Cells were washed twice with PBS and incubated with 0.1 ug/ml […] for 5 minutes at room temperature. Cells were washed three times with PBS and slides were mounted in Vectashield fluorescence mounting media. Slides were imaged using a Zeiss Axioplan 2 Upright Microscope. […] Immunofluorescence analysis using the Bethyl antibody was performed to determine if ATRX was recruited to foci. Immunofluorescence was performed as described in Example 1. In the responder cell line LS8817, further analysis was performed to determine the average number of foci present in responder cells undergoing senescence in response treatment with PD0332991. […] The distribution of the number of ATRX foci shifted to the right in responder cells treated with PD0332991 as compared to responder cells that were not treated. […] As shown in FIG. 16A-C, the increase in the number of ATRX foci in response to PD0332991 treatment in responder cells can be observed as early as day 2 subsequent to PD0332991 treatment. To determine whether ATRX foci can be used as a marker for indicating if non-responders underwent senescence in response to treatment with second drug in combination with a CDK inhibitor, non-responder cells, e.g., LS8107, was treated with PD0332991 followed by treatment with shRNA directed to MDM2 2 days post-PD0332991 treatment (FIG. 17).

[3] = tested on: responder cell line LS8817; experiment: ATRX foci by immunofluorescence in responder cells treated with PD0332991; format: cell-based
Experimental: as §1, with “treatment.” for “treatment. To determine whether ATRX foci can be used as a marker for indicating if non-responders underwent senescence in response to treatment with second drug in combination with a CDK inhibitor, non-responder cells, e.g., LS8107, was treated with PD0332991 followed by treatment with shRNA directed to MDM2 2 days post-PD0332991 treatment (FIG. 17).”

Compound: APPMRSKNPGPSQGKSM [amino acids 2475-2492 of ATRX, no modification, coupled to the carrier KLH]
- reactivity with the Bethyl antibody (Bethyl antibody): reacted

Compound: CC(=O)c1c(C)c2cnc(Nc3ccc(N4CCNCC4)cn3)nc2n(C2CCCC2)c1=O [PD0332991]
- number of SA-β-gal positive cells [1]: greatly reduced
- number of ATRX foci ([2]; LS8107, PD0332991 followed by shMDM2 2 days later, vs untreated or PD0332991 alone, FIG. 18): significant increase
- average number of ATRX foci per cell ([2]; LS8107, PD0332991 treated vs not treated, FIG. 15): did not change
- number of ATRX foci ([2]; PD0332991-treated non-responder cells, FIG. 13B): no increase
- number of ATRX foci in responder cells undergoing senescence ([3]; LS8817, PD0332991 treated vs not treated, FIG. 14): significantly more
- number of cells that contained 18 or more ATRX foci ([3]; LS8817, in response to PD0332991 treatment, FIG. 14): greatly increased
- earliest time at which the increase in ATRX foci is observed ([3]; responder cells, subsequent to PD0332991 treatment, FIG. 16A-C): 2 days
- number of ATRX foci ([3]; senescent responder cells, PD0332991 treatment, FIG. 13B): increased

Compound: PPPLQRAPPM [Peptide 2474, amino acids 2469-2479 of ATRX, no modification, coupled to KLH]
- reactivity with the Bethyl antibody (Bethyl antibody): did not react

Compound: APPPMRSKNP [2480Rs] (APPPM[Arg(Me2s)]SKNP) [Peptide 2480Rs, amino acids 2475-2484 of ATRX, symmetrically methylated at arginine 2480]
- reactivity with the Bethyl antibody (Bethyl antibody): did not react

Compound: APPPMRSKNP [Peptide 2480Ra, amino acids 2475-2484 of ATRX, asymmetrically methylated at arginine 2480]
- reactivity with the Bethyl antibody (Bethyl antibody): reacted

Compound: SKNPGPSQGKSM [Peptide 2490Ac, amino acids 2481-2492 of ATRX, acetylated at lysine 2490]
- reactivity with the Bethyl antibody (Bethyl antibody): reacted

Compound: SKNPGPSQG (SKNPGP[pS]QG) [Peptide 2487P, amino acids 2481-2489 of ATRX, phosphorylated at serine 2487]
- reactivity with the Bethyl antibody (Bethyl antibody): did not react
